This is an account of results in patent US7276603B2, “Benzofuranyl-and benzothienyl-piperazinyl quinolines and methods of their use” (Wyeth, priority 2003, dated 2007).

Where a name gives a salt, the structure may show the parent alone.

The target in one data set is T1, human 5-HT1A receptors (Homo sapiens, UniProt P08908).
T1 construct: expressed in transfected cells; host or cells: CHO cells
T1 sequence (P08908 1-422): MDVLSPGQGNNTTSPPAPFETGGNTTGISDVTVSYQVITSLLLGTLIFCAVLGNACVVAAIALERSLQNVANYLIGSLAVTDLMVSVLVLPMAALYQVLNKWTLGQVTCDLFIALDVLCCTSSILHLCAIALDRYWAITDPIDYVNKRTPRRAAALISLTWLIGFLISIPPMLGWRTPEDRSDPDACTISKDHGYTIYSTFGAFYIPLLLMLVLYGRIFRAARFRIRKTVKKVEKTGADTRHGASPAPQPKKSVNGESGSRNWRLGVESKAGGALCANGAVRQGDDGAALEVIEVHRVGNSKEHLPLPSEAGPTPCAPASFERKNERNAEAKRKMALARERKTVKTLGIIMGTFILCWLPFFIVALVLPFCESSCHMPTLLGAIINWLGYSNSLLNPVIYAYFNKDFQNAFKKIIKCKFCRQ
Nature of the data set: displacement of [3H] 8-OH-DPAT from the 5-HT1A serotonin receptor. Particulars: CHO cells stably transfected with human 5-HT1A receptors. The format is binding. On the technique in general: Displacement assays read how much labelled ligand stays bound in the presence of the test substance.

In a further data set the target is 5-HT transporter (Rattus norvegicus, UniProt P31652). Kind of data set: Rat Brain 3H-Paroxetine Binding Assay (RB 5HT Transporter). Conditions: rat frontal cortical membranes; 3H-paroxetine 0.1 nM, 60 min, 25° C. The text has this: Rat Brain ^3H-Paroxetine Binding Assay (RB 5HT Transporter):
This assay was used to determine a compound's affinity of the 5-HT transporter.
All reactions were terminated by the addition of ice cold Tris buffer followed by rapid filtration using a Tom Tech filtration device to separate bound from free ^3H-paroxetine.

Sequence of 5-HT transporter (P31652 whole entry): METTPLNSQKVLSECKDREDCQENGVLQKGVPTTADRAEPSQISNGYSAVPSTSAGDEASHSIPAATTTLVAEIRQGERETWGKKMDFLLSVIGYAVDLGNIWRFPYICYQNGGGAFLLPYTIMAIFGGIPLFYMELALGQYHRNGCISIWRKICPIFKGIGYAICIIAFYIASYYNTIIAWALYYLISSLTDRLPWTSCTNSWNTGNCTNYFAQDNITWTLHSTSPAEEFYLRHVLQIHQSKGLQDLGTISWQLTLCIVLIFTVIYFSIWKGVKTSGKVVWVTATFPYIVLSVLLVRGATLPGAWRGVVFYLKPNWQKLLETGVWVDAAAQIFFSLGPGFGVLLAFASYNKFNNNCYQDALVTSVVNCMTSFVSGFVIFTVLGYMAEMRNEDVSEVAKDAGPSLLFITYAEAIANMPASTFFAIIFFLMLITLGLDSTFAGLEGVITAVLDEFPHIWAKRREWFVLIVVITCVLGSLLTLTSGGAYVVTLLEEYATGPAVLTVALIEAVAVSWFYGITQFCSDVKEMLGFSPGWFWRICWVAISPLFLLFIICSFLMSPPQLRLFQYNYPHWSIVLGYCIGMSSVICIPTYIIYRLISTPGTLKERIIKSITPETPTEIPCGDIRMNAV

In the case of `COc1ccc2occ([C@H]3CC[C@@H](N4CCN(c5cc(F)cc6cccnc56)CC4)CC3)c2c1` [Compound 67, 6-fluoro-8-{4-[4-cis(5-methoxy-1-benzofuran-3-yl)cyclohexyl]piperazin-1-yl}quinoline], the melting point was in the range of 153 to 160 °C. In addition, the Ki at human 5-HT1A receptors amounted to 14.4 nM. Further, the Ki on 5-HT transporter came out at 146 nM.

For the compound `COc1ccc2occ(CCN3CCN(c4cccc5cccnc45)CC3)c2c1` [Compound 21, 8-{4-[2-(5-methoxy-1-benzofuran-3-yl)ethyl]-1-piperazinyl}-quinoline], the melting point amounted to 78 °C. The same compound registered a Ki on human 5-HT1A receptors of 2.83 nM. Further, affinity on 5-HT transporter was put at a Ki of 7.25 nM.

In the case of `Fc1ccc2scc([C@H]3CC[C@@H](N4CCN(c5ccc(Cl)c6cccnc56)CC4)CC3)c2c1` [Compound 51, 5-chloro-8-{4-[4-cis(5-fluoro-1-benzothien-3-yl)cyclohexyl]piperazin-1-yl}quinoline], the melting point lay within 192 to 197 °C. This compound also showed a Ki at human 5-HT1A receptors of 4.14 nM. This compound gave a Ki on 5-HT transporter of 133 nM.

`COc1cccc2c1occ2[C@H]1CC[C@@H](N2CCN(c3cc(F)cc4cccnc34)CC2)CC1` [Compound 59, 6-fluoro-8-{4-[4-cis(7-methoxy-1-benzofuran-3-yl)cyclohexyl]-1-piperazinyl}quinoline] came in with a melting point of 75 to 83 °C. For the same compound, on human 5-HT1A receptors, the inhibition constant (Ki) worked out at 1.93 nM. The inhibition constant Ki at 5-HT transporter worked out at 48 nM.

`COc1cccc2c1occ2[C@H]1CC[C@@H](N2CCN(c3ccc(F)c4cccnc34)CC2)CC1` [Compound 57, 5-fluoro-8-{4-[4-cis(7-methoxy-1-benzofuran-3-yl)cyclohexyl]-1-piperazinyl}quinoline] came in with a melting point of 143 to 146 °C. On human 5-HT1A receptors, the affinity corresponds to a Ki of 0.4 nM. For the same compound, the inhibition constant (Ki) at 5-HT transporter is 163 nM.

For the compound `Fc1ccc(N2CCN([C@H]3CC[C@@H](c4coc5ccccc54)CC3)CC2)c2ncccc12` [Compound 53, 8-{4-[4-cis(1-benzofuran-3-yl)cyclohexyl]-1-piperazinyl}-5-fluoroquinoline], the melting point was in the range of 142 to 144 °C. Further, affinity on human 5-HT1A receptors was put at a Ki of 1.74 nM. This compound also yielded an inhibition constant Ki at 5-HT transporter of 208 nM.

For the compound `Fc1cc(N2CCN(CCc3coc4ccc(F)cc34)CC2)c2ncccc2c1` (as salt: HCl) [Compound 17, 8-{4-[2-(5-fluoro-1-benzofuran-3-yl)ethyl]-1-piperazinyl}-6-fluoro-quinoline], the melting point stood at 55 °C.

As for `COc1cc(N2CCN([C@H]3CC[C@@H](c4csc5ccccc54)CC3)CC2)c2ncccc2c1` [Compound 45, 8-{4-[4-cis(1-benzothien-3-yl)cyclohexyl]-1-piperazinyl}-6-methoxyquinoline], the melting point was 148 to 150 °C. In addition, at human 5-HT1A receptors, the Ki worked out at 1.73 nM. On 5-HT transporter, this compound showed a Ki of 259 nM.

Consider `COc1cccc2c1occ2[C@H]1CC[C@H](N2CCN(c3cc(F)cc4cccnc34)CC2)CC1` [Compound 60, 6-fluoro-8-{4-[4-trans(7-methoxy-1-benzofuran-3-yl)cyclohexyl]-1-piperazinyl}quinoline], for which the melting point was 195 to 197 °C. Moreover, the Ki at human 5-HT1A receptors was 0.16 nM. The same compound displayed a Ki on 5-HT transporter of 50 nM.

On to `Fc1cc(N2CCN(C3CCC(c4cc5ccccc5o4)CC3)CC2)c2ncccc2c1` (stereo not drawn) [Compound 69, 8-[4-(4-benzofuran-2-yl-yclohexyl)-piperazin-1-yl]-6-fluoro-quinoline], for which the melting point lay within 91 to 93 °C. The compound further showed a Ki on human 5-HT1A receptors of 16.3 nM. For the same compound, the Ki on 5-HT transporter turned out to be 106 nM.

With `Fc1cc(N2CCN([C@H]3CC[C@H](c4coc5ccccc54)CC3)CC2)c2ncccc2c1` [Compound 56, 8-{4-[4-trans(1-benzofuran-3-yl)cyclohexyl]-1-piperazinyl}-6-fluoroquinoline], the melting point was 195 to 197 °C. The compound further registered a Ki on human 5-HT1A receptors of 16.6 nM. This compound gave a Ki on 5-HT transporter of 77 nM.

With `COc1cc(N2CCN(CCc3coc4ccc(F)cc34)CC2)c2ncccc2c1` (as salt: HCl) [Compound 16, 8-{4-[2-(5-fluoro-1-benzofuran-3-yl)ethyl]-1-piperazinyl}-6-methoxy-quinoline], the melting point is 80 °C.

`COc1cccc2c(C(C)CN3CCN(c4cc(Cl)cc5cccnc45)CC3)coc12` (stereo not drawn) (as salt: HCl) [Compound 33, 8-{4-[2-(7-methoxy-1-benzofuran-3-yl)propyl]-1-piperazinyl}-6-chloro-quinoline] returned a melting point of 55 to 58 °C.

`Fc1ccc2scc([C@H]3CC[C@H](N4CCN(c5ccc(Cl)c6cccnc56)CC4)CC3)c2c1` [Compound 52, 5-chloro-8-{4-[4-trans(5-fluoro-1-benzothien-3-yl)cyclohexyl]piperazin-1-yl}quinoline] registered a melting point of 195 to 197 °C. The same compound gave a Ki on 5-HT transporter of 48 nM.

For the compound `COc1cc(N2CCN([C@H]3CC[C@H](c4cc5ccccc5s4)CC3)CC2)c2ncccc2c1` [Compound 71], the melting point is 193 to 194 °C. The compound also registered a Ki on human 5-HT1A receptors of 162 nM.

`COc1cccc2c1occ2[C@H]1CC[C@H](N2CCN(c3ccc(F)c4cccnc34)CC2)CC1` [Compound 58, 5-fluoro-8-{4-[4-trans(7-methoxy-1-benzofuran-3-yl)cyclohexyl]-1-piperazinyl}quinoline]: the Ki at human 5-HT1A receptors was 21.1 nM; at 5-HT transporter it was 34 nM.

`COc1cccc2c(CCN3CCN(c4cc(Cl)cc5cccnc45)CC3)coc12` (as salt: HCl) [Compound 20, 8-{4-[2-(7-methoxy-1-benzofuran-3-yl)ethyl]-1-piperazinyl}-6-chloro-quinoline] yielded a melting point of 248 °C.

`COc1cccc2c(C(C)CN3CCN(c4cccc5cccnc45)CC3)coc12` (stereo not drawn) (as salt: HCl) [Compound 31, 8-{4-[2-(7-methoxy-1-benzofuran-3-yl)propyl]-1-piperazinyl}quinoline] had a melting point of 192 °C.

`COc1cccc2c1occ2[C@H]1CC[C@H](N2CCN(c3ccc(Cl)c4cccnc34)CC2)CC1` [Compound 64, 5-chloro-8-{4-[4-trans(7-methoxy-1-benzofuran-3-yl)cyclohexyl]piperazin-1-yl}quinoline]: the figures for the Ki at human 5-HT1A receptors and on 5-HT transporter were 18.7 nM and 49 nM, respectively.

As to `COc1cccc2c(C(C)CN3CCN(c4cc(Cl)cc5cccnc45)CC3)coc12` (stereo not drawn) [Compound 33, 8-{4-[2-(7-methoxy-1-benzofuran-3-yl)propyl]-1-piperazinyl}-6-chloro-quinoline], the results for the Ki at human 5-HT1A receptors and on 5-HT transporter were 8.19 nM and 58 nM, respectively.

`COc1cc(N2CCN([C@H]3CC[C@@H](c4csc5ccc(F)cc54)CC3)CC2)c2ncccc2c1` [Compound 49, 6-methoxy-8-{4-[4-cis(5-fluoro-1-benzothien-3-yl)cyclohexyl]piperazin-1-yl}quinoline]: the Ki on human 5-HT1A receptors turned out to be 1.37 nM; on 5-HT transporter, 92 nM.

For `Clc1cc(N2CCN(CCc3coc4ccc(Cl)cc34)CC2)c2ncccc2c1` [Compound 13, 8-{4-[2-(5-chloro-1-benzofuran-3-yl)ethyl]-1-piperazinyl}-6-chloro-quinoline], the Ki on human 5-HT1A receptors worked out at 41.3 nM; on 5-HT transporter, 64 nM.

In the case of `COc1ccc2occ(CCN3CCN(c4cc(C)cc5cccnc45)CC3)c2c1` [Compound 23, 8-{4-[2-(5-methoxy-1-benzofuran-3-yl)ethyl]-1-piperazinyl}-6-methyl-quinoline], the Ki on human 5-HT1A receptors is 20 nM; at 5-HT transporter it was 28.5 nM.

Turning to `COc1cccc2c(C(C)CN3CCN(c4cccc5cccnc45)CC3)coc12` (stereo not drawn) [Compound 31, 8-{4-[2-(7-methoxy-1-benzofuran-3-yl)propyl]-1-piperazinyl}quinoline], the Ki at human 5-HT1A receptors is 0.91 nM; on 5-HT transporter, 4.17 nM.

For the compound `COc1ccc2occ(CCN3CCN(c4cc(F)cc5cccnc45)CC3)c2c1` [Compound 26, 8-{4-[2-(5-methoxy-1-benzofuran-3-yl)ethyl]-1-piperazinyl}-6-fluoro-quinoline], the Ki on human 5-HT1A receptors came out at 14.4 nM; on 5-HT transporter it was 16.5 nM.

Regarding `Cc1cc(N2CCN(CCc3coc4cc(Cl)ccc34)CC2)c2ncccc2c1` [Compound 8, 8-{4-[2-(6-chloro-1-benzofuran-3-yl)ethyl]-1-piperazinyl}-6-methyl-quinoline], the results for the Ki at human 5-HT1A receptors and on 5-HT transporter were 36.7 nM and 403 nM, respectively.

Take `Clc1ccc2c(CCN3CCN(c4cccc5cccnc45)CC3)coc2c1` [Compound 5, 8-{4-[2-(6-chloro-1-benzofuran-3-yl)ethyl]-1-piperazinyl}-quinoline]: the figures for the Ki on human 5-HT1A receptors and on 5-HT transporter were 0.73 nM and 31 nM, respectively.

As to `CC(CN1CCN(c2cc(F)cc3cccnc23)CC1)c1coc2ccccc12` (stereo not drawn) [Compound 29, 8-{4-[2-(1-benzofuran-3-yl)propyl]-1-piperazinyl}-6-fluoro-quinoline], the Ki at human 5-HT1A receptors amounted to 112 nM; on 5-HT transporter it was 68 nM.

Consider `Fc1cc(N2CCN([C@H]3CC[C@@H](c4coc5ccccc54)CC3)CC2)c2ncccc2c1` [Compound 55, 8-{4-[4-cis(1-benzofuran-3-yl)cyclohexyl]-1-piperazinyl}-6-fluoroquinoline], for which the results for the Ki on human 5-HT1A receptors and on 5-HT transporter were 0.11 nM and 116 nM, respectively.

The Ki is a measure of affinity in units of concentration, obtained from inhibition or displacement. Read a high Ki as a looser hold on the target. Broadly, the melting point is the temperature, or range, at which the solid turns liquid.
